Experimental findings from paper PMC1851959, “Structure, substrate recognition and reactivity of Leishmania major mevalonate kinase” (BMC Structural Biology, 2007) are described below.

In one assay the target is T1, TbMK (TbMK-HA) (Trypanosoma brucei, UniProt Q57Y11).
T1 construct: gene Tb04.1D20.470
The class given is biochemical. The settings on record: phosphate donor; with 833 uM [3H](R)-MVA, MgCl2 5 uM, pH 7.0, 30 C.

Assay [1] addresses T2, LmMK (recombinant, bacterially expressed) (Leishmania major, UniProt Q4Q6K7).
T2 construct: gene LMJF_31_0560; pET15b (NdeI/XhoI), E. coli BL21(DE3), N-terminal His-tag removed by thrombin; about 329 residues, monomer, about 35 kDa; 3 C-terminal residues disordered
T2 sequence (Q4Q6K7 1-329): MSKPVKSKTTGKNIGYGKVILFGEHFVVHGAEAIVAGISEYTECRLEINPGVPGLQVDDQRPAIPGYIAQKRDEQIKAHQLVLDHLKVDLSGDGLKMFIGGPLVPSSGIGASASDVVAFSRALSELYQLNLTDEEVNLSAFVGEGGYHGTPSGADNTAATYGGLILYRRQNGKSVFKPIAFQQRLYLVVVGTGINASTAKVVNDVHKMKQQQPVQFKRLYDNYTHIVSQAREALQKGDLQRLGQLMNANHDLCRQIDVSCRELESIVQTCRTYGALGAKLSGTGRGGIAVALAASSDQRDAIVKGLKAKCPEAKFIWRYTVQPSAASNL
Description: radioactive phosphorylation assay, chromatography, scintillation counting. The class given is biochemical.

For assay [2], the target named is T2, LmMK (recombinant, bacterially expressed). In words: X-ray crystal structure of complex, […] A (also radioactive kinase assay). The class given is binding.

Molecules are shown by their SMILES.

T1 sequence (Q57Y11 entry or part of it): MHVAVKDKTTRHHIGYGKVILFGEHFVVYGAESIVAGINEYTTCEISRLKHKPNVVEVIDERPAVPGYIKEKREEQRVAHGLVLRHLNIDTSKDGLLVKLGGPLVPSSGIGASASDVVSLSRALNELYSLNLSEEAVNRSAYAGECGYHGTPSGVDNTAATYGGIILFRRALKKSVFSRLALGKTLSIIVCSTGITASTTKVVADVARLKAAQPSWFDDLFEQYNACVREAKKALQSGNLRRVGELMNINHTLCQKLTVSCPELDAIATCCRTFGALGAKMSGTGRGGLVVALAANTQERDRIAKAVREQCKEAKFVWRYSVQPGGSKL

On to `Nc1ncnc2c1ncn2[C@@H]1O[C@H](COP(=O)(O)OP(=O)(O)OP(=O)(O)O)[C@@H](O)[C@H]1O` [ATP], for which the “radioactive phosphorylation assay, chromatography, scintillation counting” value at TbMK (TbMK-HA) is “an ATP-dependent MK activity in Leishmania and Trypanosoma”; in assay [1], “Activity of LmMK was observed after incubation of the enzyme with radiolabeled [^3H] (R)-MVA and ATP”.

Take `C[C@@](O)(CCO)CC(=O)O` [(R)-MVA]: the “X-ray crystal structure of complex, 1.9 A (also radioactive kinase assay)” value in assay [2] is given as “The electron density clearly indicated the presence of (R)-MVA in molecule A”.
